Results taken from patent publication US8962608B2, “Cycloalkylnitrile pyrazole carboxamides as janus kinase inhibitors” (Merck Sharp & Dohme Corp., priority 2011, dated 2015).

Biological target: JAK1 (recombinant purified GST-tagged catalytic domain) (Homo sapiens (Human), UniProt P23458)
Test: biochemical
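Note: biochemical assay with HTRF read-out.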

Sequence of JAK1 (recombinant purified GST-tagged catalytic domain) (P23458 875-1153): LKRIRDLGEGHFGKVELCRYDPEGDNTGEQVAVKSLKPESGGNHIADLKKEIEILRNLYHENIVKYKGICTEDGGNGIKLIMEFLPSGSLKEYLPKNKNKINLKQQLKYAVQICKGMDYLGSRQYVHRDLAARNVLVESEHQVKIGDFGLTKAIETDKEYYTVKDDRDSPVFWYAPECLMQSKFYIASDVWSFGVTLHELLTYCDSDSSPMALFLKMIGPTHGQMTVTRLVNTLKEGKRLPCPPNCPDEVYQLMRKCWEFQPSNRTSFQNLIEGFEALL

SMILES	IC50
CC(C)CN(CC1CC1)[C@H]1CC[C@@H](n2cc(C(N)=O)c(Nc3ccc(C(F)(F)F)cc3)n2)[C@H](C#N)C1 (single isomer, unassigned) [Example 30-9, l-{(1R,2R,4S or 1S,2S,4R)-2-cyano-4-[(cyclopropylmethyl)(2-methylpropyl)amino]cyclo-hexyl}-3-{[4-(trifluoromethyl)phenyl]amino}-1H-pyrazole-4-carboxamide]	16 nM
CC(C)(CF)c1ccc(Nc2nn([C@H]3CC[C@@H](O)C[C@@H]3C#N)cc2C(N)=O)cc1 (single isomer, unassigned) [Example 25-9, 1-[(1S,2S,4R or 1R,2R,4S)-2-cyano-4-hydroxycyclohexyl]-3-{[4-(2-fluoro-1,1-dimethylethyl)phenyl]amino}-1H-pyrazole-4-carboxamide]	1 nM
N#C[C@H]1CCCC[C@@H]1n1cc(C(N)=O)c(Nc2ccnc(Cl)c2)n1 (racemic) [Example 17-7, 3-[(2-chloropyridin-4-yl)amino]-1-[(1S,2S and 1R,2R)-2-cyanocyclohexyl]-1H-pyrazole-4-carboxamide]	4 nM
COCC(C)(C)N[C@H]1CCC(n2cc(C(N)=O)c(Nc3ccccc3)n2)[C@@H](C#N)C1 (single isomer, unassigned) [Example 28-231, 1-{(1S,2S,4S or 1R,2R,4R)-2-cyano-4-[(2-methoxy-1,1-dimethylethyl)amino]cyclo-hexyl}-3-(phenylamino)-1H-pyrazole-4-carboxamide]	16 nM
N#C[C@H]1CC(NCCO)CCC1n1cc(C(N)=O)c(Nc2ccc(S(=O)(=O)C(F)(F)F)cc2)n1 (mixture of isomers) [Example 27-15, 1-{(1S,2S and 1R,2R)-2-cyano-4-[(2-hydroxyethyl)amino]cyclohexyl}-3-({4-[(trifluoromethyl)sulfonyl]phenyl)amino)-l/f-pyrazolc-4-carboxamide]	0.35 nM
N#C[C@H]1C[C@H](N2CCC2)CC[C@@H]1n1cc(C(N)=O)c(Nc2ccc(CC(F)(F)F)cc2)n1 (single isomer, unassigned) [Example 28-53, 1-[(1S,2S,4R or 1R,2R,4S)-4-azetidin-1-yl-2-cyanocyclohexyl]-3-{[4-(2,2,2-trifluoroethyl)phenyl]amino}-1H-pyrazole-4-carboxamide]	0.4 nM
N#C[C@H]1C[C@@H](N2CC(O)(C(F)(F)F)C2)CCC1n1cc(C(N)=O)c(Nc2ccc(Cl)cc2)n1 (single isomer, unassigned) [Example 28-213, 3-[(4-chlorophenyl)amino]-1-{(1S,2S,4S or 1R,2R,4R)-2-cyano-4-[3-hydroxy-3-(trifluoromethyl)azetidin-1-yl]cyclohexyl}-1H-pyrazole-4-carboxamide]	1 nM
COC(=O)c1ccc(Nc2nn([C@H]3CCCC[C@@H]3C#N)cc2C(N)=O)cn1 (single isomer, unassigned) [Example 17-70, methyl 5-({4-carbamoyl-1-[(1R,2R or 1S,2S)-2-cyanocyclohexyl]-1H-pyrazol-3-yl}amino)pyridine-2-carboxylate]	3 nM
N#C[C@H]1C[C@H](N2CC(O)C2)CC[C@@H]1n1cc(C(N)=O)c(Nc2ccc(S(=O)(=O)C(F)(F)F)cc2)n1 (single isomer, unassigned) [Example 28-150, 1-[(1S,2S,4R or 1R,2R,4S)-2-cyano-4-(3-hydroxyazetidin-1-yl)cyclohexyl]-3-({4-[(trifluoro-methyl)sulfonyl]phenyl}amino)-1H-pyrazole-4-carboxamide]	0.3 nM
CO/N=C/c1ccc(Nc2nn([C@H]3CCCC[C@@H]3C#N)cc2C(N)=O)cc1 (single isomer, unassigned) [Example 39, 1-[(1S,2S or 1R, 2R)-2-Cyanocyclohexyl]-3-({4-[(methoxyimino)methyl]phenyl}amino)-1H-pyrazole-4-carboxamide]	0.45 nM
C[C@H](N[C@H]1CC[C@H](n2cc(C(N)=O)c(Nc3ccc(OC(F)F)nc3)n2)[C@@H](C#N)C1)C1CC1 (single isomer, unassigned) [Example 28-32, 1-[(1S,2S,4S or 1R,2R,4R)-2-cyano-4-{[(1S)-1-cyclopropylethyl]amino}cyclo-hexyl]-3-{[6-(difluoromethoxy)pyridin-3-yl]amino}-1H-pyrazole-4-carboxamide]	5 nM
N#C[C@H]1C[C@H](O)CCC1n1cc(C(N)=O)c(Nc2ccnc(F)c2)n1 (single isomer, unassigned) [Example 25-25, 1-[(1S,2S,4R or 1R,2R,4S)-2-cyano-4-hydroxycyclohexyl]-3-[2-fluoropyridin-4-yl)amino]-1H-pyrazole-4-carboxamide]	15 nM
N#C[C@H]1CCCCC1n1cc(C(N)=O)c(Nc2ccc3c(c2)CCS3(=O)=O)n1 (mixture of isomers) [Example 20, 1-[(1S,2S and 1R,2R)-2-Cyanocyclohexyl]-3-[(1,1-dioxido-2,3-dihydro-1-benzothiophen-5-yl)amino]-1H-pyrazole-4-carboxamide]	0.4 nM
CNC1CCC(n2cc(C(N)=O)c(Nc3ccc(S(=O)(=O)C(F)(F)F)cc3)n2)[C@@H](C#N)C1 (mixture of isomers) [Example 27-6, 1-[(1S,2S and 1R,2R)-2-cyano-4-(methylamino)cyclohexyl]-3-({4-[(trifluoromethyl)sulfonyl]phenyl}amino)-1H-pyrazole-4-carboxamide]	0.08 nM
C[C@@](O)(c1ccc(Nc2nn([C@H]3CCCC[C@@H]3C#N)cc2C(N)=O)cn1)C(F)(F)F (single isomer, unassigned) [Example 17-35, 1-[(1S,2S or 1R,2R)-2-cyanocyclohexyl]-3-({6-[(1R or 1S)-2,2,2-trifluoro-1-hydroxy-1-methylethyl]pyridin-3-yl}amino)-1H)-pyrazole-4-carboxamide]	3 nM
C[C@](O)(c1ccc(Nc2nn([C@H]3CCCC[C@@H]3C#N)cc2C(N)=O)cn1)C(F)F (single isomer, unassigned) [Example 17-39, 1-[(1S,2S or 1R,2R)-2-cyanocyclohexyl]-3-({6-[(1S or 1R)-2,2-difluoro-1-hydroxy-1-methylethyl]pyridin-3-yl}amino)-1H-pyrazole-4-carboxamide]	1 nM
N#C[C@@H]1CC2(CCC1n1cc(C(N)=O)c(Nc3ccnc(F)c3)n1)CC2 (mixture of isomers) [Example 11-7, 1-((5R,6R and 5S,6S)-5-cyanospiro[2.5]octan-6-yl)-3-((2-fluoropyridin-4-yl)amino)-1H-pyrazole-4-carboxamide]	5 nM
CC(C)(C(=O)NCC(F)(F)F)c1ccc(Nc2nn([C@H]3CCCC[C@@H]3C#N)cc2C(N)=O)cc1 (single isomer, unassigned) [Example 17-57, 1-[(1S,2S or 1R,2R)-2-cyanocyclohexyl]-3-[(4-{1,1-dimethyl-2-oxo-2-[(2,2,2-trifluoroethyl)amino]ethyl}phenyl)amino]-1H-pyrazole-4-carboxamide]	0.2 nM

Second part, the compound after the results:

IC50	SMILES
9 nM	CC1(CNC(=O)[C@H]2CC[C@H](n3cc(C(N)=O)c(Nc4ccc(Cl)cc4)n3)[C@@H](C#N)C2)COC1 (single isomer, unassigned) [Example 35-31, 3-[(4-chlorophenyl)amino]-1-[(1S,2S,4S or 1R,2R,4R)-2-cyano-4-{[(3-methyloxetan-3-yl)methyl]carbamoyl}cyclohexyl]-1H-pyrazole-4-carboxamide]
62 nM	N#C[C@H]1C[C@@H](C(=O)N2CC(F)(F)C2)CC[C@@H]1n1cc(C(N)=O)c(Nc2ccc(Cl)cc2)n1 (single isomer, unassigned) [Example 35-6, 3-[(4-chlorophenyl)amino]-1-{(1S,2S,4S or 1R,2R,4R)-2-cyano-4-[(3,3-difluoroazetidin-1-yl)carbonyl]cyclohexyl}-1H-pyrazole-4-carboxamide]
3 nM	C=C[C@]1(O)CC[C@H](n2cc(C(N)=O)c(Nc3ccc(Cl)cc3)n2)[C@@H](C#N)C1 (single isomer, unassigned) [Example 32-5, 3-[(4-chlorophenyl)amino]-1-[(1S,2S,4S or 1R,2R,4R)-2-cyano-4-ethenyl-4-hydroxycyclohexyl]-1H-pyrazole-4-carboxamide]
2 nM	C[C@]1(O)CC[C@H](n2cc(C(N)=O)c(Nc3ccc(Cl)c(F)c3)n2)[C@@H](C#N)C1 (single isomer, unassigned) [Example 32-17, 3-[(4-chloro-3-fluorophenyl)amino]-1-[(1S,2S,4S or 1R,2R,4R)-2-cyano-4-hydroxy-4-methylcyclohexyl]-1H-pyrazole-4-carboxamide]
3 nM	C[C@@]1(O)CC[C@H](n2cc(C(N)=O)c(Nc3ccc(Cl)cc3)n2)[C@@H](C#N)C1 (single isomer, unassigned) [Example 32-13, 3-[(4-chlorophenyl)amino]-1-[(1S,2S,4R or 1R,2R,4S)-2-cyano-4-hydroxy-4-methylcyclohexyl]-1H-pyrazole-4-carboxamide]
21 nM	N#C[C@@H]1C[C@H](C(=O)N[C@H](C2CC2)C(F)(F)F)CC[C@H]1n1cc(C(N)=O)c(Nc2ccc(Cl)cc2)n1 (single isomer, unassigned) [Example 35-25, 3-[(4-chlorophenyl)amino]-1-[(1R,2R,4R or 1S,2S,4S)-2-cyano-4-{[(1R)-1-cyclopropyl-2,2,2-trifluoroethyl]carbamoyl}cyclohexyl]-1H-pyrazole-4-carboxamide]
2 nM	N#C[C@@H]1CCCCC1n1cc(C(N)=O)c(Nc2ccc(S(=O)(=O)CC(F)(F)F)cc2)n1 (single isomer, unassigned) [Example 43-7, 1-[(1S,2S or 1R,2R)-2-cyanocyclohexyl]-3-({4-[(2,2,2-trifluoroethyl)sulfonyl]phenyl}amino)-1H-pyrazole-4-carboxamide]
5 nM	N#C[C@@H]1C[C@H](C(=O)N2CCC(F)(F)C2)CC[C@H]1n1cc(C(N)=O)c(Nc2ccc(Cl)cc2)n1 (single isomer, unassigned) [Example 35-32, 3-[(4-chlorophenyl)amino]-1-{(1R,2R,4R or 1S,2S,4S)-2-cyano-4-[(3,3-difluoropyrrolidin-1-yl)carbonyl]cyclohexyl}-1H-pyrazole-4-carboxamide]
